# Laboratory results published in paper PMC8400955 (Pharmaceuticals, 2021).
# Entries after “also recorded” stand apart in the source; their conditions may differ.
# Assays:
# [1] = target: T1, CYP2B6 (Homo sapiens, UniProt P20813); assay: CYP inhibition in human liver microsomes, CYP2B6; assay type: in vitro ADME; details: HLM, marker substrate Bupropion
# T1 sequence (P20813 1-491): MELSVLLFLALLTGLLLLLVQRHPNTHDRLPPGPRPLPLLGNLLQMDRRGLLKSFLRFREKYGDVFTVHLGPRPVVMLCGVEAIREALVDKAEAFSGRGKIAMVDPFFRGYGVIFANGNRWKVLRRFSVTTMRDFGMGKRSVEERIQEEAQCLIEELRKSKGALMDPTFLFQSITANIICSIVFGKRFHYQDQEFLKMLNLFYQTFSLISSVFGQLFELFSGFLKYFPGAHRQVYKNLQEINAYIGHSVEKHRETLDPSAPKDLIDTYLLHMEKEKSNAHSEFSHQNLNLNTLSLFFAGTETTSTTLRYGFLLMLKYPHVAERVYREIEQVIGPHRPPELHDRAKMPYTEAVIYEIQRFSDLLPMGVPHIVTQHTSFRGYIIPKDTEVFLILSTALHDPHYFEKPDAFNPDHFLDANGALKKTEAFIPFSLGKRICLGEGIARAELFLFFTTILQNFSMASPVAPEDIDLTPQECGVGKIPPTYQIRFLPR
# Protocol: . The inhibition of CYP2B6 and 3A4 (when midazolam was used as the substrate) by ZB716 was not observed. The inhibitory potential of ZB716 on human CYP enzyme activities appears relatively low.
# The final concentrations of ZB716 in the incubation system were 0, 0.05, 0.15, 0.5, 1.5, 5, and 15 µM (final organic solvent concentration ≤ 1%). […] . […] The concentrations of the isoform-specific metabolites derived from marker substrates were measured by UPLC–MS/MS. The IC50 values were calculated from the percentages of the rate of the metabolite formation relative to non-inhibited controls vs. the concentrations of ZB716 or positive control inhibitors. All incubations were performed in triplicate. The mean of the enzyme activity (% of non-inhibited control) for each concentration was plotted against the log inhibitor concentration, and fitted to an IC50 curve.
# [2] = target: T2, CYP1A2 (Homo sapiens, UniProt P05177); assay: CYP phenotyping, recombinant CYP1A2
# T2 sequence (P05177 1-516): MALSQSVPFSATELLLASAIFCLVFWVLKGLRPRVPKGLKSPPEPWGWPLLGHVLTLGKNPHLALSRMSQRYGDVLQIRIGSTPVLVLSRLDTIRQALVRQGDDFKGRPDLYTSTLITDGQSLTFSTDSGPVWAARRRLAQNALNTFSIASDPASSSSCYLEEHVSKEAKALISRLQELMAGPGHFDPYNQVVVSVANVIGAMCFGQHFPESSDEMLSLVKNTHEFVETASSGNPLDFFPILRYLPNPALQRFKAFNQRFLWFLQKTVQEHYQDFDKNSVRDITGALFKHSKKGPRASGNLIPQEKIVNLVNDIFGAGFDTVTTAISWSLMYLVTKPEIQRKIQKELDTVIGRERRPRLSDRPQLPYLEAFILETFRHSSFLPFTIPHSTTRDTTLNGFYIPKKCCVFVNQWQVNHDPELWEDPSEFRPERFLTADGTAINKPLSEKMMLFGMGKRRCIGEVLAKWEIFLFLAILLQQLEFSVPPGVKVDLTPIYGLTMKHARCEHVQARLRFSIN
# Protocol: Bactosomes prepared from E. coli that heterologously expressed individual human CYP isoforms together with human CYP reductase were obtained from CYPEX LTD (Scotland, UK), and stored at −80 °C prior to use. […] Timepoints were taken at 0, 5, 10, 15, 20, and 30 min. Substrate disappearance was used to calculate intrinsic clearance (Clint) and half-life (t1/2). All incubations were performed in triplicate. […] The chemical inhibitors for CYP1A2, 2A6, 2B6, 2C8, 2C9, 2C19, 2D6, and 3A4 were furafylline, tranylcypromine, ticlopidine, montelukast, sulfaphenazole, N-3-benzylnirvanol, quinidine, and ketoconazole, respectively. Timepoints were collected at 0, 15, 30, 45, and 60 min, and the remaining percentage of the parent drug at each timepoint was calculated (the calculation details are available in the Supplementary Materials). All incubations were performed in triplicate.
# The slope, k, was determined by linear regression of the natural logarithm of percent parent disappearance vs. incubation time curve. Peak areas for test article and internal standard were determined from extracted ion chromatograms. The peak area ratio was used to calculated for the results.
# The half-life value (t1/2 rCYPi) was determined from the slope value:
# Conversion of the t1/2 rCYPi (in min) into the intrinsic clearance (Clint rCYPi in μL/min/pmol) was done using the following equation: […]
structure (smiles),measurement,setting,value
"C[C@]12CC[C@@H]3c4ccc(B(O)O)cc4C[C@@H](CCCCCCCCC[S+]([O-])CCCC(F)(F)C(F)(F)F)[C@H]3[C@@H]1CC[C@@H]2O (stereo partly drawn) [ZB716, fulvestrant-3-boronic acid]",IC50,[1],not observed; also recorded: No Inhibition
same,half-life at 2 µM,[2]; human,16.2 ± 2.2 min
same,Clint,"[2]; recombinant CYP1A2, 2 µM ZB716",0.866 ± 0.120 µL/min/pmol CYP
